Measurements taken from the supplement of paper PMC9938120.

What was measured:
Assay in all cases: drug sensitivity score (DSS3, normalised partial AUC of % inhibition dose-response) (DSS (score)); higher = more sensitive (stronger inhibition of viability); extreme values may be limits of the assay
[1] = test system: FMOC22 (patient-derived mucinous ovarian cancer cells); details: 72 h; library: FO5A; assay format: 2D, 384-well, CellTiter-Glo
Summary of the method: (§1)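 Early-passage (under 10) patient-derived ovarian cancer cells were dispensed onto 384-well flat clear-bottom plates pre-plated with compounds at five concentrations spanning a 10,000-fold range, then incubated 72 h at 37 °C, 5% CO2. Viability was read with CellTiter-Glo, and the data were processed in Breeze. The drug sensitivity score is a partial area under the percent-inhibition dose-response curve divided by the log of the upper asymptote, with higher values meaning greater sensitivity.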

[2] = test system: FMOC25_1 (patient-derived low-grade serous ovarian cancer cells); details: 72 h; library: FO4B; assay format: 2D, 384-well, CellTiter-Glo
Summary of the method: as §1

[3] = test system: FMOC02_2 (patient-derived low-grade serous ovarian cancer cells); details: 72 h; library: FO5A; assay format: 2D, 384-well, CellTiter-Glo
Summary of the method: as §1

[4] = test system: FMOC14 (patient-derived high-grade serous ovarian cancer cells); details: 72 h; library: FO5A; assay format: 2D, 384-well, CellTiter-Glo
Summary of the method: as §1

[5] = test system: FMOC25_2 (patient-derived low-grade serous ovarian cancer cells); details: 72 h; library: FO5A; assay format: 2D, 384-well, CellTiter-Glo
Summary of the method: as §1

[6] = test system: FMOC02_3 (patient-derived low-grade serous ovarian cancer cells); details: 72 h; library: FO5A; assay format: 2D, 384-well, CellTiter-Glo
Summary of the method: as §1

[7] = test system: FMOC09 (patient-derived high-grade serous ovarian cancer cells); details: 72 h; library: FO5A; assay format: 2D, 384-well, CellTiter-Glo
Summary of the method: as §1

[8] = test system: FMOC03 (patient-derived mucinous ovarian cancer cells); details: 72 h; library: FO5A; assay format: 2D, 384-well, CellTiter-Glo
Summary of the method: as §1

[9] = test system: FMOC06 (patient-derived mucinous ovarian cancer cells); details: 72 h; library: FO5A; assay format: 2D, 384-well, CellTiter-Glo
Summary of the method: as §1

[10] = test system: FMOC24 (patient-derived high-grade serous ovarian cancer cells); details: 72 h; library: FO5A; assay format: 2D, 384-well, CellTiter-Glo
Summary of the method: as §1

SMILES	drug sensitivity score [1]	drug sensitivity score [2]	drug sensitivity score [3]	drug sensitivity score [4]	drug sensitivity score [5]	drug sensitivity score [6]	drug sensitivity score [7]	drug sensitivity score [8]	drug sensitivity score [9]	drug sensitivity score [10]
C#Cc1cccc(Nc2ncnc3cc4c(cc23)OCCOCCOCCO4)c1 [Icotinib]	1.8	9	11.2	2.1	7.1	10.7	8	9.7	3.4	1
CO[C@@H]1[C@H](N(C)C(=O)c2ccccc2)C[C@H]2O[C@]1(C)n1c3ccccc3c3c4c(c5c6ccccc6n2c5c31)C(=O)NC4 [Midostaurin]	4.5	14.5	21.7	3	21.2	16.9	10.6	5	9.1	9.3
CN1CCN(CCOc2cc(OC3CCOCC3)c3c(Nc4c(Cl)ccc5c4OCO5)ncnc3c2)CC1 [Saracatinib]	0.6	5.3	15.6	5	10	16.7	11	9.4	4.6	4.7
COc1cc(Nc2c(C#N)cnc3cc(OCCCN4CCN(C)CC4)c(OC)cc23)c(Cl)cc1Cl [Bosutinib]	6.4	3.7	14.6	6.6	13.2	14.1	9.2	9.3	5.2	7.55
COc1ccc(S(=O)(=O)Nc2cccnc2Nc2ccc(O)cc2)cc1 [ABT-751]	6.8	5	9.4	1.3	6.8	9.5	7.3	7.4	7	1.8
CN(C)C[C@@H]1CCn2cc(c3ccccc32)C2=C(C(=O)NC2=O)c2cn(c3ccccc23)CCO1 [Ruboxistaurin]	3.2	5.4	9.7	6.8	9.3	12.8	7.5	3	8.7	6.45
O=C(/C=C/c1cccc(S(=O)(=O)Nc2ccccc2)c1)NO [Belinostat]	9.9	10.8	12.3	16	10.5	10.3	6.4	13.6	11.9	11.4
COc1cccc2c1C(=O)c1c(O)c3c(c(O)c1C2=O)C[C@@](O)(C(=O)CO)C[C@@H]3O[C@H]1C[C@H](N)[C@H](O)[C@H](C)O1 [Doxorubicin]	4.5	7.7	2.9	3.6	8	7.2	6.5	2.6	4.3	5.65
CON(C)C(=O)N1N=C(c2cc(F)ccc2F)S[C@@]1(CCCN)c1ccccc1 [Filanesib]	6.3	6.1	6.8	0	12	12.7	7.5	4.4	0	0
Nc1nc2[nH]cc(CCc3ccc(C(=O)N[C@@H](CCC(=O)O)C(=O)O)cc3)c2c(=O)[nH]1 [Pemetrexed]	3.4	0	0	0	3.3	0	0	2.2	0.3	1.55
Nc1ncnc2c1nc(Cl)n2[C@@H]1O[C@H](CO)[C@@H](O)[C@H]1O [8-chloro-adenosine]	3.2	11.4	19.7	3.3	15.2	18.2	5.5	2.4	4.1	6
CC(C)NC[C@@H](C(=O)N1CCN(c2ncnc3c2[C@H](C)C[C@H]3O)CC1)c1ccc(Cl)cc1 [Ipatasertib]	2.1	7	7.8	2.8	7.4	14.3	0.1	1	4	3
Nc1ccccc1NC(=O)c1ccc(CNc2nccc(-c3cccnc3)n2)cc1 [Mocetinostat]	8	9.6	12.6	10.1	9.2	11.2	3.7	11.1	10.9	11.4
CC(C)C[C@@H](C(=O)N[C@H](C(=O)OC1CCCC1)c1ccccc1)[C@H](O)C(=O)NO [Tosedostat]	1.8	6.2	7.2	5.3	4.7	11	6.6	7.6	11.9	19.7
CCc1c2c(nc3ccc(O)cc13)-c1cc3c(c(=O)n1C2)COC(=O)[C@]3(O)CC [SN-38]	31	24.4	21.3	20.4	29.1	32.5	15.1	20.2	21.8	24.8
COc1cc2c(cc1-c1c(C)noc1C)ncc1[nH]c(=O)n([C@H](C)c3ccccn3)c12 [I-BET151]	5.1	4.5	10.1	1.3	7.8	11.3	4.5	6.6	4.7	7.05
CC(C)[C@H](C(=O)Nc1ccc(C(=O)NO)cc1)c1ccccc1 [AR-42]	8.7	10.1	11	11.5	10.7	8.8	5.2	12.4	10.6	9.3

SMILES	drug sensitivity score [1]	drug sensitivity score [2]	drug sensitivity score [3]	drug sensitivity score [4]	drug sensitivity score [5]	drug sensitivity score [6]	drug sensitivity score [7]	drug sensitivity score [8]	drug sensitivity score [9]	drug sensitivity score [10]
Cn1cnc2c(F)c(Nc3ccc(Br)cc3Cl)c(C(=O)NOCCO)cc21 [Selumetinib]	7.2	7.3	12.9	1.3	8.1	13.7	10.6	11.4	14.6	0.4
CO[C@H]1C[C@@H]2CC[C@@H](C)[C@@](O)(O2)C(=O)C(=O)N2CCCC[C@H]2C(=O)O[C@H]([C@H](C)C[C@@H]2CC[C@@H](OCCO)[C@H](OC)C2)CC(=O)[C@H](C)/C=C(\C)[C@@H](O)[C@@H](OC)C(=O)[C@H](C)C[C@H](C)/C=C/C=C/C=C/1C [Everolimus]	6.7	9.2	10	1.7	6.7	10.2	3.9	2.8	5.8	7.5
C=CC(=O)N1CCC[C@@H](n2nc(-c3ccc(Oc4ccccc4)cc3)c3c(N)ncnc32)C1 [Ibrutinib]	0	5.6	10.2	2.7	6.5	7.3	6	8.8	0.3	0.5
CCOc1cc2ncc(C#N)c(Nc3ccc(OCc4ccccn4)c(Cl)c3)c2cc1NC(=O)/C=C/CN(C)C [Neratinib]	2.3	8.7	14.1	2.5	16.5	18.3	9.8	12.3	2.2	1.1
CCN(CC)CCOc1ccc(C(=C(Cl)c2ccccc2)c2ccccc2)cc1 [Clomifene]	4.8	4.7	8.2	5	7.2	9.1	5	7	5.6	9.9
C=CC(=O)Nc1cc2c(Nc3ccc(F)c(Cl)c3)ncnc2cc1OCCCN1CCOCC1 [Canertinib]	8	10	21.8	9.5	14.6	18.7	20.8	20.6	9	5.3
Cc1cc(-c2nc(-c3ccc(OC(F)(F)F)cc3)no2)nn1Cc1ccnc(N2CCN(C3CC3)CC2)c1 [BAY 87-2243]	6	2.2	0	3.1	5.3	0	0	6.4	0	0
CC[C@]1(O)C[C@@H]2CN(CCc3c([nH]c4ccccc34)[C@@](C(=O)OC)(c3cc4c(cc3OC)N(C)[C@H]3[C@@](O)(C(=O)OC)[C@H](OC(C)=O)[C@]5(CC)C=CCN6CC[C@]43[C@@H]65)C2)C1 [Vinblastine]	6.8	10.9	3.7	0	15.9	17.2	8.3	7.5	2.4	0.45
CCNC(=O)c1noc(-c2cc(C(C)C)c(O)cc2O)c1-c1ccc(CN2CCOCC2)cc1 [Luminespib]	13.2	10.9	19.8	13	23.6	23	16.9	10.8	3.2	9.4
CNC(=O)c1nn(C)c2c1C(C)(C)Cc1cnc(Nc3ccc(N4CCN(C)CC4)cc3)nc1-2 [Milciclib]	6.2	8.5	12.5	6.3	13.1	15.1	7.6	8.6	6.8	8.25
O=C(O)C(=O)O.[NH-][C@@H]1CCCC[C@H]1[NH-].[Pt+2] [Oxaliplatin]	9.6	8.9	7.5	6.8	5.7	9.9	14.9	8.8	7	11.3
C[C@@]1(C(=O)Nc2ccc(F)nc2)CCCN1c1nc(Nc2cc(C3CC3)n[nH]2)c2cccn2n1	9.5	9.2	14.3	2.2	14.6	18.9	14.7	7	14.7	2.75
Nc1ccn([C@@H]2O[C@H](CO)[C@@H](O)[C@@H]2O)c(=O)n1 [Cytarabine]	6.4	3.4	8.3	0	6.3	9.3	6.9	2.3	2.4	0.6
Oc1nc(-c2ccc(C(F)(F)F)cc2)nc2c1CSCC2 [XAV-939]	0	6.9	8.5	2.1	9.9	6	0	1.7	0.5	3.55
O=C(O)c1ccc2c(c1)nc(Nc1cccc(Cl)c1)c1ccncc12 [Silmitasertib]	6	3.6	4.1	4.9	5.2	6.3	4.5	7	6.9	2.55
Cn1cc(C2=Nc3cc(NC(=O)C(N)C4CCCCC4)cc4c3C2=CNNC4=O)cn1 (stereo not given)	8.3	11.7	7.3	6.8	10.9	9.9	7.6	4.3	3	10.1
CN(C)Cc1c(C(=O)NCCOc2ccc(C(=O)NO)cc2)oc2ccccc12 [Abexinostat]	8.5	13.3	16.6	13.5	14.2	14	5.9	12.7	11.7	15.3
